“Also recorded” adds a separate entry of the source. [5mC] = 5-methylcytosine

Data set [1] relates to dendritic cells. The data set can be described thus: in vivo dendritic cell activation (IFN-γ secreting cells). The conditions noted are these: encapsulated in POPC:CHOL:DODMA:PEGDMG 20:45:25:10. As to the method:
PBS was used as a control.
FIG. 3 clearly illustrates the ability of encapsulated ODN1m to activate dendritic cells. […] Dendritic cell activation was measured by the percentage of IFN-γ secreting cells. These cells were labeled with an antibody to indicate the cell type and only those having the dendritic cell marker were included in this measurement.

Data set [2] has as its system dendritic cells. The data set can be described thus: activation of dendritic cells (CD86 co-expression). It is filed as in vivo, ICR mice. As to conditions: lipid encapsulated, single i.v. injection 20 mg/kg, versus PBS control = 100%. Here is the method: ICR mice were immunized with a single intravenous injection of encapsulated oligonucleotides at a dose of 20 mg/kg and the control ICR mouse was injected with PBS. […] Each of these markers are specific to dendritic cells though they may represent different cell sub-populations. In each of FIGS. 4 and 5 the control was plotted as equivalent to 100% and the effect of ODN1m for each backbone configuration was plotted as a percentage of that control.
On collection of the samples the cells were first analyzed by flow cytometry for the co-expression of CD86, which indicates cell activation, and the dendritic cell phenotype markers CD11c and DEC205. The percentage of activated dendritic cells was plotted against a PBS control equivalent to 100%. […] Similar results are shown when measuring DEC205 positive dendritic cells in FIG. 5 panels.

For a further data set, the system named is E.G7-OVA. The data set can be described thus: prophylactic efficacy of OVA / OVA257-264 vaccination, E.G7-OVA model. It is filed as in vivo, C57/BL6 mice. The conditions noted are these: LNA (encapsulated) forms; FIG. 35. Here is the method:
Vaccinations. B6 mice were vaccinated subcutaneously (SC) with […] per injection. Dosing schedules were either q7dx2 or q4dx4 and are indicated in the individual figure legends. CFA mixtures were very viscous and had to be given with a larger gauge syringe. For humoral studies, a prime (day 0) and boost (day 14) strategy was used and blood samples were collected at various times by tail nicking.
Efficacy studies. E.G7-OVA or EL-4 thymoma cell lines were used throughout the study. These cells were cultured in vitro according to established methods. For tumor studies, 2.5×106 E.G7-OVA cells were injected subcutaneously in […] of PBS containing 1% FCS. Tumor measurements were made by repeated perpendicular measurements of tumor dimensions and using the formula: […]
Full-length OVA and the immunodominant cytotoxic T lymphocyte (CTL) peptide epitope (OVA257-264) were used to evaluate cell mediated immune responses and the prophylactic and therapeutic efficacy of OVA vaccination against the E.G7-OVA transfected cell line, using LNA both as an adjuvant and as the basis for a cancer vaccine formulation. LNA formulations for this experiment were prepared using DSPC:Chol:DODAP:PEGCer14 at a ration of 25:45:20:10
The anti-tumor activity of OVA and OVA257-264 were examined against the murine thymoma cell line, E.G7-OVA, implanted subcutaneously (SC) in C57/BL6 mice. […] Given the activity observed with the protein or peptide alone, this dose and schedule represents a useful model to evaluate adjuvants designed to boost the immune response against OVA and/or OVA257-264.
To examine LNA formulations as adjuvants, the impact of three variables were evaluated on vaccination and efficacy in the prophylactic E.G7-OVA model: (1) the activity of free vs. encapsulated ODN 1, (2) phosphodiester (PO) vs phosphorothioate (PS) ODN, and (3) full-length OVA protein vs single-epitope peptide OVA257-264 (FIGS. 30A and B). In this set of studies, free and encapsulated ODN 1 was simply mixed with antigen and administered SC near the nape of the neck. ODN and antigen doses in these studies were […], respectively.

As for “ODN1m: 5′-TAAZGTTGAGGGGCAT-3, SEQ ID NO: 4, Z = methylated cytosine (DNA TAACGTTGAGGGGCAT; DNA, [5mC] at 4, backbone not given here; tested with both phosphodiester and phosphorothioate backbones)”, the “dendritic cell activation (percentage of IFN-γ secreting cells)” value in the data set with dendritic cells [1] is “more active than its unmethylated counterpart; also recorded: more active than the unmethylated counterpart ODN1”. Also, the “CD86 expression on dendritic cells” value in the data set with dendritic cells [2] is “induced CD86 expression on CD11c positive dendritic cells; also recorded: more active than the unmethylated counterpart ODN1”. In the data set with E.G7-OVA, the “efficacy of ODN sequences” value was “strongest responses”.

Source of the values: US20040013649A1, “Cancer vaccines and methods of using the same” (Inex Pharmaceuticals Corporation, priority 2002, published 2004).
